Results as given in patent US10869931B2, “Polyethylene glycol-modified angiogenesis inhibitor HM-1 and application thereof” (NANJING ANJI BIOLOGICAL TECHNOLOGY CO.,LTD, priority 2016, dated 2020).
Where no end group is shown, it is not given here.

How the values were obtained:
[1] = system: Esophageal cancer tumor cells; assay: MTT proliferation inhibition, esophageal cancer cells; assay type: cell-based, human; parameters: concentration or dose not given beside the values; details: 48 h
Method: (§1) The activity of mPEG-HM-1 to inhibit the growth of various tumor cells was examined by MTT assay. The tumor cells were cultured to a concentration of 90% or more in a 37° C., 5% CO2 incubator and collected by trypsinization. The cells were resuspended in the culture medium and counted under a microscope to adjust the cell concentration to 2×10^4 cells/mL, the cell suspension was inoculated into a 96-well plate at 100 μL/well and incubated overnight at 37° C. in a 5% CO2 incubator. mPEG-HM-1 was diluted with the culture solution to each predetermined concentration. Docetaxel is diluted to the final concentration with the culture medium. After the cells were fully attached, each dilution was added to a 96-well plate (100 μL/well). The mPEG-HM-1 dilution was added as a drug-administered group, and docetaxel was added as a positive control group, and a culture solution without any drug was used as a negative control group. Incubate for 48 h at 37° C. in a 5% CO2 incubator. 5 mg/mL of MTT was added to a 96-well plate at 20 μL per well, and incubation was continued for 4 hours. The medium was aspirated, dissolved in 150 μL of DMSO per well, and gently mixed by shaking for 10 min. The absorbance was measured at a measurement wavelength of 570 nm and a reference wavelength of 630 nm using a microplate reader, and the rate of growth inhibition (proliferation inhibition, PI) was calculated. The formula is as follows: PI (%)=1−administration group/negative group
(§2) The test was repeated 3 times independently, and the results obtained by the test were expressed as mean±SD, and the test results are shown in Table 15 to Table 18.

[2] = system: Brain tumor cells; assay: MTT proliferation inhibition, brain tumor cells; assay type: cell-based, human; parameters: concentration or dose not given beside the values; details: 48 h
Method: as §1, §2

[3] = system: Melanoma tumor cells; assay: MTT proliferation inhibition, melanoma cells; assay type: cell-based, human; parameters: concentration or dose not given beside the values; details: 48 h
Method: as §1, §2

[4] = system: collagen induced arthritis (CIA) in DBA/1 mice; assay: Collagen-induced mouse arthritis (CIA) model; assay type: in vivo; details: CIA DBA/1 mice; for Clinical score: maximum score 16
[5] = system: Thyroid cancer tumor cells; assay: MTT proliferation inhibition, thyroid cancer cells; assay type: cell-based, human; parameters: concentration or dose not given beside the values; details: 48 h
Method: as §1, §2

[6] = system: sarcoma tumor cells; assay: MTT proliferation inhibition, sarcoma cells; assay type: cell-based, human; parameters: concentration or dose not given beside the values; details: 48 h
Method: as §1, §2

[7] = system: Head and neck cancer tumor cells; assay: MTT proliferation inhibition, head and neck cancer cells; assay type: cell-based, human; parameters: concentration or dose not given beside the values; details: 48 h
Method: as §1, §2

[8] = system: Uterine cancer tumor cells; assay: MTT proliferation inhibition, uterine cancer cells; assay type: cell-based, human; parameters: concentration or dose not given beside the values; details: 48 h
Method: as §1, §2

[9] = system: adjuvant arthritis (AA) SD rats; assay: Adjuvant arthritis (AA) rat model; assay type: in vivo; details: for Joint swelling / Left and right paw swelling / Clinical score: AA SD rats; for Clinical score: maximum score 16
[10] = system: Ovarian cancer tumor cells; assay: MTT proliferation inhibition, ovarian cancer cells; assay type: cell-based, human; parameters: concentration or dose not given beside the values; details: 48 h
Method: as §1, §2

[11] = system: Hemangioma tumor cells; assay: MTT proliferation inhibition, hemangioma cells; assay type: cell-based, human; parameters: concentration or dose not given beside the values; details: 48 h
Method: as §1, §2

[12] = system: choroidal neovascularization in BN rats; assay: Laser-induced choroidal neovascularization in BN rats (FFA); assay type: in vivo, rat
Method: 6-8 weeks old male BN rats were anesthetized with 846 compound anesthetic 0.5 mL/kg administered intraperitoneally. The eye drops of compound tropamide eyes were used 5 minutes before laser photocoagulation, and the pupils of both eyes were fully scattered. Fix animals, with the aid of −53.00 D contact lens, around the optic disc and along the same distance from the optic disc 2PD, the laser beam photocoagulation were performed to make a total of 8 photo-condensation spots, with laser wavelength of 647.1 nm, power of 350 mW, photocoagulation spot diameter and time were 50 μm and 0.05 s, respectively. Immediately after photocoagulation, fundus photography was performed. FFA, histopathology and transmission electron microscopy were performed at 3, 7, 14, 21, and 28 days after photocoagulation.
It was confirmed by fundus photography and FFA examination that the fluorescein leakage of photocoagulation peaked on the 21st day after photocoagulation, and histopathological examination was performed at the same time. […] A large number of neovascular vessels were seen, and red blood cells were visible in the lumen. Microscopically, capillary cells in the choroidal melanocytes were cohesively altered and endothelial cells aggregated.
Rats that were successfully modeled were randomly divided into groups of 5 rats each. They were labeled as negative control group, mPEG-SC-HM-1 treatment group, mPEG2-NHS-HM-1 treatment group, mPEG-ALD-HM-1 treatment group and mPEG-bALD-HM-1 treatment group, respectively. Saline, mPEG-HM-1 (see Table 53 for dosing) was administered intravitreally, once daily for 1 week. FFA examinations were performed 3 days, 7 days, 14 days, and 28 days after administration of the modified peptides.

[13] = system: Pancreatic cancer tumor cells; assay: MTT proliferation inhibition, pancreatic cancer cells; assay type: cell-based, human; parameters: concentration or dose not given beside the values; details: 48 h
Method: as §1, §2

[14] = 10 mg/kg subcutaneous from day 30 of modeling
[15] = 10 mg/kg subcutaneous once every three days
[16] = Day 3 after administration, 25 μg intravitreally once daily for 1 week (Table 53)
[17] = Day 3 after administration, 25 μg intravitreally once daily for 1 week (Table 53), total spots 290-296 by table
[18] = Day 7, 25 μg intravitreally once daily for 1 week (Table 53)
[19] = Day 7, 25 μg intravitreally once daily for 1 week (Table 53), total spots 182-188 by table
[20] = Day 14, 25 μg intravitreally once daily for 1 week (Table 53)
[21] = Day 14, 25 μg intravitreally once daily for 1 week (Table 53), total spots 132-138 by table
[22] = Day 28, 25 μg intravitreally once daily for 1 week (Table 53)
[23] = Day 28, 25 μg intravitreally once daily for 1 week (Table 53), total spots 67-71 by table
[24] = 20 mg/kg subcutaneous from day 30 of modeling
[25] = 20 mg/kg subcutaneous once every three days
[26] = 80 mg/kg subcutaneous from day 30 of modeling
[27] = 80 mg/kg subcutaneous once every three days

| Substance | rate of growth inhibition [1] | rate of growth inhibition [2] | rate of growth inhibition [3] | Joint swelling [4, 14] | Left and right paw swelling [4, 14] | Clinical score [4, 14] | rate of growth inhibition [5] | rate of growth inhibition [6] | rate of growth inhibition [7] | rate of growth inhibition [8] | Joint swelling [9, 15] | Left and right paw swelling [9, 15] | Clinical score [9, 15] | rate of growth inhibition [10] | rate of growth inhibition [11] | CNV Incidence rate [12, 16] | leakage Spots # [12, 17] | CNV Incidence rate [12, 18] | leakage Spots # [12, 19] | rate of growth inhibition [13] | also measured |
| --- | --- | --- | --- | --- | --- | --- | --- | --- | --- | --- | --- | --- | --- | --- | --- | --- | --- | --- | --- | --- | --- |
| mPEG2-NHS5k-Arg-Gly-Ala-Asp-Arg-Ala-Gly-Gly-Gly-Gly-Arg-Gly-Asp ({mPEG2‑NHS 5 kDa}-RGADRAGGGGRGD) [mPEG2-NHS5k-HM-1] | 41.35 ± 11.32% | 40.35 ± 10.29% | 59.21 ± 18.93% | 0.78 ± 0.12 mm | 0.76 ± 0.11 mm | 9.01 ± 1.28 | 36.23 ± 12.15% | 38.41 ± 11.10% | 37.13 ± 11.32% | 55.20 ± 15.63% | 0.73 ± 0.16 mm | 3.91 ± 0.73 mm | 5.92 ± 1.04 | 56.88 ± 21.07% | 42.78 ± 12.50% | 56.12% | 165 | 55.49% | 101 | 46.58 ± 13.12% | CNV Incidence rate [12, 20]: 45.99%; leakage Spots # [12, 21]: 63; CNV Incidence rate [12, 22]: 48.53%; leakage Spots # [12, 23]: 33 |
| mPEG2-NHS10k-Arg-Gly-Ala-Asp-Arg-Ala-Gly-Gly-Gly-Gly-Arg-Gly-Asp ({mPEG2‑NHS 10 kDa}-RGADRAGGGGRGD) [mPEG2-NHS10k-HM-1] | 48.12 ± 12.85% | 47.62 ± 11.11% | 65.89 ± 20.57% |  |  |  | 40.47 ± 12.03% | 43.59 ± 12.39% | 43.52 ± 11.16% | 60.49 ± 18.05% |  |  |  | 60.69 ± 21.24% | 48.81 ± 12.46% |  |  |  |  | 50.23 ± 14.26% | Joint swelling [4, 24]: 0.75 ± 0.15 mm; Left and right paw swelling [4, 24]: 0.74 ± 0.14 mm; Clinical score [4, 24]: 8.83 ± 1.32; Joint swelling [9, 25]: 0.69 ± 0.19 mm; Left and right paw swelling [9, 25]: 3.80 ± 0.73 mm; Clinical score [9, 25]: 5.53 ± 1.09; in vivo immune protection effect on adjuvant arthritis model (in words) ([9]; AA rats, subcutaneous, once every three days, vs model group): has the most significant effect; incidence of CNV ([12]; BN rats, 28 days after administration, intravitreal once daily for 1 week): 39.71%; CNV Incidence rate ([12]; Day 3 after administration, 50 μg intravitreally once daily for 1 week (Table 53)): 50.34%; leakage Spots # ([12]; Day 3 after administration, 50 μg intravitreally once daily for 1 week (Table 53), total spots 290-296 by table): 148; CNV Incidence rate ([12]; Day 7, 50 μg intravitreally once daily for 1 week (Table 53)): 48.35%; leakage Spots # ([12]; Day 7, 50 μg intravitreally once daily for 1 week (Table 53), total spots 182-188 by table): 88; CNV Incidence rate ([12]; Day 14, 50 μg intravitreally once daily for 1 week (Table 53)): 43.07%; leakage Spots # ([12]; Day 14, 50 μg intravitreally once daily for 1 week (Table 53), total spots 132-138 by table): 59; CNV Incidence rate ([12]; Day 28, 50 μg intravitreally once daily for 1 week (Table 53)): 39.71%; leakage Spots # ([12]; Day 28, 50 μg intravitreally once daily for 1 week (Table 53), total spots 67-71 by table): 27 |
| mPEG2-NHS40k-Arg-Gly-Ala-Asp-Arg-Ala-Gly-Gly-Gly-Gly-Arg-Gly-Asp ({mPEG2‑NHS 40 kDa}-RGADRAGGGGRGD) [mPEG2-NHS40k-HM-1] | 48.65 ± 12.64% | 42.56 ± 11.38% | 66.72 ± 20.85% |  |  |  | 45.19 ± 14.07% | 46.46 ± 11.54% | 40.36 ± 10.53% | 62.25 ± 20.39% |  |  |  | 61.59 ± 13.61% | 50.64 ± 15.89% |  |  |  |  | 51.49 ± 16.28% | Joint swelling [4, 26]: 0.76 ± 0.14 mm; Left and right paw swelling [4, 26]: 0.79 ± 0.15 mm; Clinical score [4, 26]: 8.98 ± 1.30; Joint swelling [9, 27]: 0.73 ± 0.14 mm; Left and right paw swelling [9, 27]: 3.81 ± 0.63 mm; Clinical score [9, 27]: 5.89 ± 1.07; CNV Incidence rate ([12]; Day 3 after administration, 200 μg intravitreally once daily for 1 week (Table 53)): 51.02%; leakage Spots # ([12]; Day 3 after administration, 200 μg intravitreally once daily for 1 week (Table 53), total spots 290-296 by table): 150; CNV Incidence rate ([12]; Day 7, 200 μg intravitreally once daily for 1 week (Table 53)): 51.10%; leakage Spots # ([12]; Day 7, 200 μg intravitreally once daily for 1 week (Table 53), total spots 182-188 by table): 93; CNV Incidence rate ([12]; Day 14, 200 μg intravitreally once daily for 1 week (Table 53)): 44.53%; leakage Spots # ([12]; Day 14, 200 μg intravitreally once daily for 1 week (Table 53), total spots 132-138 by table): 61; CNV Incidence rate ([12]; Day 28, 200 μg intravitreally once daily for 1 week (Table 53)): 41.18%; leakage Spots # ([12]; Day 28, 200 μg intravitreally once daily for 1 week (Table 53), total spots 67-71 by table): 28 |
| mPEG-ALD5k-Arg-Gly-Ala-Asp-Arg-Ala-Gly-Gly-Gly-Gly-Arg-Gly-Asp ({mPEG‑ALD 5 kDa}-RGADRAGGGGRGD) [mPEG-ALD5k-HM-1] | 44.63 ± 10.86% | 42.15 ± 12.89% | 63.61 ± 21.30% | 0.74 ± 0.14 mm | 0.72 ± 0.15 mm | 8.93 ± 1.27 | 40.23 ± 10.05% | 38.41 ± 12.53% | 40.71 ± 11.33% | 65.99 ± 17.72% | 0.72 ± 0.17 mm | 3.92 ± 0.67 mm | 5.91 ± 1.09 | 65.81 ± 20.42% | 43.89 ± 14.14% | 55.17% | 160 | 52.75% | 96 | 52.19 ± 12.64% | CNV Incidence rate [12, 20]: 46.97%; leakage Spots # [12, 21]: 62; CNV Incidence rate [12, 22]: 46.48%; leakage Spots # [12, 23]: 33 |
